Measured values as given in ChEMBL document CHEMBL2311317, “Organosilicon molecules with medicinal applications” (J Med Chem, 2013).

Target: Matrix protein 2 (Influenza A virus (A/Udorn/307/1972(H3N2)), UniProt P0DOF8, V27A)

SMILES | IC50
NC1CC[Si]2(CCCC2)CC1 | 96.3 µM
NC1CCC2(CCCC2)CC1 | 319 µM
